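In this assay, cells in 96-well plates receive the compound at five concentrations for 48 hours. Endpoints are linearly interpolated between the surrounding concentrations. Abbreviation: GI50, concentration required for 50% inhibition of growth. Definition used: TGI = concentration required for complete inhibition of growth.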 *1 amine or outer side, *2 acyl side, *3 side chain or, on linkers, in order; H or OH if unused. Where a SMILES comes first, the peptide text is derived from it. [ ]: non-standard residue; d: D form. ξ: configuration not given here. X21 = CC[C@@H](C)C(N[*:1])C(=O)[*:2]; ξR = N=C(N)NCCCC(N)C(=O)O; ξI = CCC(C)C(N)C(=O)O; ξL = CC(C)CC(N)C(=O)O; ξK = NCCCCC(N)C(=O)O; ξV = CC(C)C(N)C(=O)O; ξA = CC(N)C(=O)O
Test system: MDA-MB-468 breast
Test: NCI-60 cell line screen, 48 h

SMILES: CCC(C)C1NC(=O)C(CC(C)C)NC(=O)C(C)NC(=O)C(C(C)C)NC(=O)C(CCCCN)NC(=O)C(CC(C)C)NC(=O)C(C(C)C)NC(=O)[C@H](C)NC(=O)C(C(C)CC)NC(=O)C(CCCN=C(N)N)NC(=O)C(CCCCN)NC(=O)C(CCCN=C(N)N)NC(=O)C(CCCCN)NC(=O)C([C@H](C)CC)NC(=O)C(CCCCN)NC1=O (stereo partly specified) (cyclo(A[ξV][ξL][ξK][ξV][ξA][ξL][ξI][ξK][X21][ξK][ξR][ξK][ξR][ξI]))
- GI50: 0.361 µM
- TGI: 1.42 µM

SMILES: COc1ccccc1/C=C/C(=O)/C=C/c1ccccc1OC
- GI50: 1.27 µM
- TGI: 2.67 µM

SMILES: Cc1ccc(Sc2sc(-c3ccccc3)nc2[P+](c2ccccc2)(c2ccccc2)c2ccccc2)cc1
- GI50: 0.222 µM
- TGI: 0.674 µM

SMILES: O=C(Nc1cccc(-n2cc(-c3ccncc3)c(-c3ccc(O)c(Cl)c3)n2)c1)Nc1cccc(C(F)(F)F)c1
- GI50: 1.85 µM
- TGI: 6.17 µM

SMILES: CCOC(=O)Nc1nc2c(C)cccc2s1
- GI50: 28.7 µM
- TGI: > 100 µM

SMILES: NC1CCC(N[C@@H]2C[C@H]2c2ccccc2)CC1 (stereo partly specified)
- GI50: > 100 µM
- TGI: > 100 µM

SMILES: C=C1C[C@@]2(C)C(CC[C@]3(C)C2CC=C2C4CC(C)(C)C[C@@H](OC(=O)/C(C)=C\C)[C@]4(C(=O)O)CC[C@]23C)C(C)(C)C1=O (stereo partly specified)
- GI50: 2.02 µM
- TGI: 5.91 µM

SMILES: CCSc1nnc(-c2ccc3ccccc3c2O)n1-c1ccc(Cl)cc1
- GI50: 3.59 µM
- TGI: > 100 µM

— PubChem BioAssay (NCI)
